Test system: porcine abdominal aortas
Assay: opening angle experiment on porcine abdominal aortic rings
Conditions: for statistical analysis of opening angles (ANOVA): Example 13, 50-fold dilution (0.05 mM; Glutaraldehyde 0.5% in PBS, pH 7.4), n=9 rings
Protocol: In this study, compounds of this disclosure were added to abdominal aortas in an opening angle experiment to determine how they would affect the aorta in vitro. Thus, to understand the ability of the compounds of this disclosure to bind to aortic elastin and determine their ability to affect the aorta and aneurysms.
Twelve porcine abdominal aortas were ordered and received. The infra-renal sections of these aortas were dissected, cleaned, rinsed, and then cut into rings measuring 3 mm in width. […] These rings were mixed up before testing to randomize them based on their location in the artery. They were then stored in 500 ml of saline. Analog solutions were prepared at the same molar concentration, but they were not normalized for gallic acid content as indicated in Table 1. These solutions of analogs were made using a solution containing about 26% iopamidol, a radioopaque contrast agent. […] All solutions were prepared one day prior to their use. […] For each solution, 6 aortic rings were placed in a pre-labeled 50 ml conical tube containing 20 ml of the solution, resulting in a volume to tissue ratio of approximately 3.3 ml of solution per ring. The tubes were then incubated at room temperature for 3 hours, with rotation every 30-40 minutes.
After the treatment, while still in the tube, the solution was decanted, and the rings were rinsed three times in PBS and then suspended in PBS. The rings were placed in a 6-well plate, with 2 rings per well and 3 ml of PBS in each well. Each ring was opened with a single cut using fine scissors and laid back in the well. The rings were allowed 15 minutes to recoil in the PBS at room temperature, with gentle shaking every 5 minutes.
Photographs of the rings were taken, and their opening angles were measured using Image J software. The data were then plotted and statistical analyses were performed for comparison.
All solutions were prepared one day prior to their use.
For this experiment, nine aortic rings were placed in 30 ml of a pre-prepared solution within a 50 ml conical tube. […] The tubes were then incubated at room temperature for 3 hours, with rotations occurring every 30-40 minutes. After the incubation period, while still in the tubes, the solution was poured off, and the rings were rinsed three times with PBS and then left suspended in PBS. The rings were then transferred to a 6-well plate, with 2 rings per well and 3-4 ml of PBS in each well. Each ring was opened with a single cut using fine scissors and laid flat in the well. They were allowed to recoil for 15 minutes in PBS at room temperature, with gentle shaking every 5 minutes. Photographs were taken, and the opening angle was measured using the Image J software.

Compound | statistical comparison of mean opening angles among analogs (FIG. 3) (Example 12, 2.49 mM, n=6 rings) | statistical analysis of opening angles (ANOVA) | variability of opening angles relative to control samples (Example 12, 2.49 mM, n=6 rings) | also measured
O=C(OC[C@@H]1O[C@@H](OC(=O)c2cc(O)c(O)c(O)c2)[C@H](OC(=O)c2cc(O)c(O)c(O)c2)[C@@H](OC(=O)c2cc(O)c(O)c(O)c2)[C@H]1OC(=O)c1cc(O)c(O)c(O)c1)c1cc(O)c(O)c(O)c1 [α-PGG, pentagalloyl α-glucose] | not statistically different |  |  | 
O=C(OC[C@H]1O[C@@H](OC(=O)c2cc(O)c(O)c(O)c2)[C@H](OC(=O)c2cc(O)c(O)c(O)c2)[C@@H](OC(=O)c2cc(O)c(O)c(O)c2)[C@@H]1OC(=O)c1cc(O)c(O)c(O)c1)c1cc(O)c(O)c(O)c1 [β-PGG, pentagalloyl β-glucose, reference compound] | not statistically different | significantly different from all controls and analogs |  | 
O=CCCCC=O [Glutaraldehyde, reference compound] |  | significantly different from all controls and analogs |  | 
polygalloyl-sucrose [OG-sucrose] |  |  | substantially reduced | 
O=C(OC[C@H]1O[C@@H](OC(=O)c2cc(O)c(O)c(O)c2)[C@H](OC(=O)c2cc(O)c(O)c(O)c2)[C@@H]1OC(=O)c1cc(O)c(O)c(O)c1)c1cc(O)c(O)c(O)c1 [TG-ribose, polygalloyl ribose] | statistically significant lower opening angles |  |  | 
polygalloyl maltose [OG-maltose] |  |  | substantially reduced | opening angle compared to the PBS subgroup (statistics) (Example 12, 2.49 mM, n=6 rings): statistically significant differences, except for OG-maltose
